According to patent US5508311A, “Aliphatic propargylamines as selective MAO-B inhibitors and as neuroprotective agents” (University of Saskatchewan, priority 1993, dated 1996):
Structures can show the parent of a compound that is named as a salt. Where two headings read alike, the source gives them in different places. One block for each compound: values may come before it.

Tests used:
MAO-A [1] = target: T1, MAO-A (Mus musculus, UniProt Q64133); assay: in vivo; conditions: ip, 2 h, read-out: 5-HT ID50
T1 construct: MAO activities in the mouse brain after; from tissue
T1 sequence (Q64133 1-526): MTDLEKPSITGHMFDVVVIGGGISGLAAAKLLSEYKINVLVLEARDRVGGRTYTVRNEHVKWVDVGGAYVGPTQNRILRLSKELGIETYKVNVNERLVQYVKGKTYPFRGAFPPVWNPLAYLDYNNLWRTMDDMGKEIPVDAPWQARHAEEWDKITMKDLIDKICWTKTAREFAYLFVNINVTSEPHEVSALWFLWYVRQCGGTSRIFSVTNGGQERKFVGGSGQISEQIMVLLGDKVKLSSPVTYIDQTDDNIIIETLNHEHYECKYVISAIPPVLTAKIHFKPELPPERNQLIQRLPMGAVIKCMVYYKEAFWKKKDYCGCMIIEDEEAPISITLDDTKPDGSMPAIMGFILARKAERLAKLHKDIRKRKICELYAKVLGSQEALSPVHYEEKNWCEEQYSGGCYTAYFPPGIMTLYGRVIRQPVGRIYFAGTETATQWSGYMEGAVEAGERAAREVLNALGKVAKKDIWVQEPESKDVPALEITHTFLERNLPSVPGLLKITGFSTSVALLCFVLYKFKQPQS
Procedure: (§1) Albino Swiss mice were used in this study. The animals were injected intraperitoneally with different doses of the aliphatic propargylamines in 100 μL saline.
(§2) 0.5, 1, 2, 5, 10, 20, 50, 100 mg/Kg. Striata were dissected from the brai
(§3) two hours after i.p. administration of the drugs. MAOA and MAOB activitie
(§4) were determined immediately. The values were estimated from doseresponse

MAO-B [2] = target: T2, MAO-B (Mus musculus, UniProt Q8BW75); assay: MAO-B activity in the mouse brain after oral administration (substrate PE); format: in vivo; conditions: oral 10 mg/Kg, 2 hours; PE (1.9 × 10^-5 M); mean ± standard error; saline = 100
T2 construct: MAO activities in the mouse brain after; from tissue
T2 sequence (Q8BW75 1-520): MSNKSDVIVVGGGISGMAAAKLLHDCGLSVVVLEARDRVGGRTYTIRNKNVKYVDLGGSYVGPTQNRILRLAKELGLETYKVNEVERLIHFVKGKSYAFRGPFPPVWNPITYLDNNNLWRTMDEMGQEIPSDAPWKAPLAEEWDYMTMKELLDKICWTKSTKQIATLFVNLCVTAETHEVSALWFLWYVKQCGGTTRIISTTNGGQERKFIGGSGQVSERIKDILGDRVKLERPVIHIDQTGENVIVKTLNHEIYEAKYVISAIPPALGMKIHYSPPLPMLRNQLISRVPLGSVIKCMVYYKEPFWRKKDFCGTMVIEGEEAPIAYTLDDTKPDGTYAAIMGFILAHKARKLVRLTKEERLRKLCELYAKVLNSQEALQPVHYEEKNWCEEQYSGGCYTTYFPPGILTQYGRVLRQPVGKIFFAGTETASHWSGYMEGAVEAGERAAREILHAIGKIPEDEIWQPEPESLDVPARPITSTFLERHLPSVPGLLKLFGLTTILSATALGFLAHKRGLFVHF
Procedure: (§5) Table 3 indicates the MAO activities in the mouse brain following oral administration of the aliphatic propargylamines.
(§6) of each compound. Striata were dissected from the brain two hours after
(§7) the administration of the drugs. MAOA and MAOB activities were determined
Striata were dissected from the brain two
hours after oral administration of the drugs. MAOB activities were then
determined immediately. The values were estimated from doseresponse

MAO-A [3] = target: T3, MAO-A (Rattus norvegicus, UniProt P21396); assay: biochemical; format: biochemical; conditions: substrate 5-HT (5 × 10^-4 M); rat liver MAO, in vitro; average of at least 3 independent experiments
T3 sequence (P21396 1-526): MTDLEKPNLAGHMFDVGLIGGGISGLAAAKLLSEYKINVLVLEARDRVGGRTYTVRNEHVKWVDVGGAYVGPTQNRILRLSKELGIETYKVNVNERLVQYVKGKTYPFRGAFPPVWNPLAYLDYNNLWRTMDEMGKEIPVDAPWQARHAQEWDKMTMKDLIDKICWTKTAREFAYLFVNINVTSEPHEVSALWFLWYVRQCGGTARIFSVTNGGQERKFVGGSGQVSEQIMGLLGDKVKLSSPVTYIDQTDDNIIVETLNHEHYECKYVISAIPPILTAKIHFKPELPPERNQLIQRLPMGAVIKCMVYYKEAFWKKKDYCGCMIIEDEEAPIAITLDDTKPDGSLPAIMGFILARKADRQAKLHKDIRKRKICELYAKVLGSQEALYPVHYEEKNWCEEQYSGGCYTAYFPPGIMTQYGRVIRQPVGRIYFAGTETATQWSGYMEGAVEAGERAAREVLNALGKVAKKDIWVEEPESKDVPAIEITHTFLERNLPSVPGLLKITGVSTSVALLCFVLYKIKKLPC
Procedure: (§8) The aliphatic propargylamine inhibitors (from 1×10^-10 M to 1×10^-4 M) were preincubated with the MAO for 20 min. at ambient room temperature and then the residual enzyme activities were determined by addition of the substrates, followed by further incubation at 37° C. for 30 min. The enzymatic reactions were terminated by the addition of citric acid and the aldehyde products were extracted with toluene: ethyl acetate (1:1, v/v) and the radio-activities assessed in a scintillation counter.

MAO-B [4] = target: T4, MAO-B (Rattus norvegicus, UniProt P19643); assay: biochemical; format: biochemical; conditions: for Ratio MAO-A/MAO-B: rat, liver mitochondrial membranes
T4 sequence (P19643 1-520): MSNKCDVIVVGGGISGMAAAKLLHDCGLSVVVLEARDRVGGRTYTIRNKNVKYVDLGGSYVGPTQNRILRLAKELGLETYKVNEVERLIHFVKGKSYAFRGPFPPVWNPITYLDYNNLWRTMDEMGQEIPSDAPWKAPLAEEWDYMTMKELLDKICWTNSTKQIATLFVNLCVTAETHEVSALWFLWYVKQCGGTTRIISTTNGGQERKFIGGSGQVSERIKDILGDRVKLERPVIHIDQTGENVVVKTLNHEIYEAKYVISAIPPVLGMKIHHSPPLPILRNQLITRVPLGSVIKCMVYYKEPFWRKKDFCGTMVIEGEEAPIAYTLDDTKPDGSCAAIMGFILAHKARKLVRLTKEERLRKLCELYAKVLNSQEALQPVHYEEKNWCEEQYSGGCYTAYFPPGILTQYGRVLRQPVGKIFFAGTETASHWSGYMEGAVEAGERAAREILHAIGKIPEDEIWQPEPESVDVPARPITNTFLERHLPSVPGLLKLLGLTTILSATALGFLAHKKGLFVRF
Procedure: as §8

monoamine oxidase = assay: Inhibition of rat liver monoamine oxidase deamination of dopamine (DA, mixed-type MAO A and B substrate) in vitro; format: biochemical; conditions: substrate DA (5 × 10^-4 M), average of at least 3 independent experiments
Procedure: as §8

MAO-B [5] = target: T2, MAO-B; assay: in vivo; format: in vivo; conditions: for Ratio MAO-A/MAO-B: 120 min; for ED50: read-out: PE ID50
Procedure: as §1, §2, §3, §4

MAO-A [6] = target: T1, MAO-A; format: in vivo; conditions: mouse, in vivo, po, 10 mg/kg
Procedure: as §5, §6, §7

[7] = substrate PE (1.9 × 10^-5 M), rat liver MAO, in vitro, average of at least 3 independent experiments

Structure (SMILES): C#CCN(C)C(C)CCCCC.Cl (stereo not drawn) [Example 2-HMP, N-(2-Heptyl)-N-methylpropargylamine hydrochloride]
ED50 (MAO-A [1]): 25 mg/kg
Relative activity PE (MAO-B [2]): 39 ± 4%
IC50 (MAO-A [3]): 20 µM
Ratio MAO-A/MAO-B (MAO-B [4]): 100
IC50 (MAO-B [4]; read-out: PE IC50): 0.2 µM
IC50 (monoamine oxidase): 0.3 µM
MAO-B ID50 (mg/Kg) / IC50 (1 × 10^-6 M) (MAO-B [5]; mouse, in vivo, ip): 2.5
Ratio MAO-A/MAO-B (MAO-B [5]; mouse, in vivo, ip): 50
ED50 (MAO-B [5]; mouse, ip, 2 h): 0.5 mg/kg
Relative activity 5-HT (MAO-A [6]): 99 ± 5

5-HT IC50 (MAO-A [3]): no effect
IC50 (MAO-B [4]; […], rat liver MAO, in vitro, average of at least 3 independent experiments, read-out: PE IC50): 20 µM
IC50 (monoamine oxidase): 30 µM
Structure (SMILES): C#CCN(C)C(C)C.Cl [Example 2-PrMP, N-Methyl-N-(2-propyl)propargylamine hydrochloride]

Structure (SMILES): C#CCCN(C)C(C)CC.O=C(O)C(=O)O (stereo not drawn) [Example 3-BuBuM, N-(3-Butynyl)-N-(2-butyl)methylamine oxalate salt]
5-HT IC50 (MAO-A [3]): inactive
PE IC50 (MAO-B [4]): inactive

5-HT IC50 (MAO-A [3]): inactive
PE IC50 (MAO-B [4]; [7]): inactive
DA IC50 (monoamine oxidase): inactive
Structure (SMILES): C#CCN(C)CCCC(=O)O [Example 3-CP-MP, N-(3-Carboxy-1-propyl)-N-methylproparglamine oxalate]

Structure (SMILES): C#CCN(C)CCCCCC(=O)OCC.O=C(O)C(=O)O [Example 5-CP1MP, N-(5-carbethoxy-1-pentyl)-N-methylpropargylamine oxalate]
5-HT IC50 (MAO-A [3]): inactive
PE IC50 (MAO-B [4]): inactive
DA IC50 (monoamine oxidase): inactive

Structure (SMILES): C#CCN(C)C(C)CCCC(=O)OCC.Cl (stereo not drawn) [Example 5-CP2MP, N-(5-Carbethoxy-2-pentyl)-N-methylpropargylamine-HCl]
5-HT IC50 (MAO-A [3]): inactive
PE IC50 (MAO-B [4]): inactive
DA IC50 (monoamine oxidase): inactive

Structure (SMILES): C#CCN(C)CCCCCCO.Cl [Example 6-OH-Hx1MP, N-(6-Hydroxy-1-hexyl)-N-methylpropargylamine-HCl]
5-HT IC50 (MAO-A [3]): inactive
IC50 (MAO-B [4]; [7]): 100 µM

Structure (SMILES): C#CCN(C)C(CC)CC.O=C(O)C(=O)O [Example M-3-PP, N-Methyl-N-(3-pentyl)propargylamine oxalate]
ED50 (MAO-A [1]): 12 mg/kg
IC50 (MAO-A [3]): 2 µM
Ratio MAO-A/MAO-B (MAO-B [4]): 10
IC50 (MAO-B [4]; read-out: PE IC50): 0.2 µM
MAO-B ID50 (mg/Kg) / IC50 (1 × 10^-6 M) (MAO-B [5]; ID50 i.p. in mice versus IC50 in vitro): 10 (mg/Kg)/(1 × 10^-6 M)
Ratio MAO-A/MAO-B (MAO-B [5]; mouse, in vivo, ip): 12
ED50 (MAO-B [5]; mouse, ip, 2 hours after administration, […], estimated from dose response curves): 1 mg/kg
